{"source": "patent US20120022164A1", "about": "“EXTERNAL PREPARATION COMPRISING PROSTAGLANDIN DERIVATIVE” (TAISHO PHARMACEUTICAL CO., LTD., priority 2006, published 2012)", "key": {"Solubility in water": {"assay": "Solubility in water", "format": "physicochemical", "settings": "water at 25° C."}, "[1]": {"assay": "Solubility of compound of formula II in cyclodextrin aqueous solutions (Test Example 7)", "format": "physicochemical", "settings": "for solubility at 24 h: 25 °C, aqueous with cosolvent or surfactant or cyclodextrin, thermodynamic from solid", "description": "A complex containing the compound of formula II and the cyclodextrin can be obtained by grinding a block prepared by freeze-drying a solution which is obtained by dissolving the both into water. In order to examine the minimum content (formulation amount) of cyclodextrin required to obtain the complex, solubility of the compound of formula II in cyclodextrin aqueous solutions which have different concentrations of and different types of cyclodextrin was measured. That is, cyclodextrin aqueous solutions of various concentrations were prepared by dissolving α-cyclodextrin, β-cyclodextrin, γ-cyclodextrin or hydroxypropyl-β-cyclodextrin into water. After each solution was poured into a test tube, the compound of formula II was added excessively. The test tube was shaken in a water bath at 25° C. for 24 hours, and a concentration of the dissolved compound of formula II was quantified with high-performance liquid chromatography (Equipment: LC10VP series manufactured by SHIMADZU CORPORATION, Column: Develosil ODS-HG-5 manufactured by Nomura Chemical Co., Ltd., Inner diameter: 4.6 mm, Length: 15 cm, Column temperature: 40° C., Mobile phase: mixed solution of water/acetonitrile/phosphoric acid (550:450:1), Flow rate: 1 mL/min, Detection wavelength: 200 nm). With this, solubility of the compound of formula II and molar ratio of the compound of formula II and each type of cyclodextrin were calculated.\nNote that, for calculation of the molar ratios, molecular weights of the compound of formula II, α-cyclodextrin, β-cyclodextrin, γ-cyclodextrin and hydroxypropyl-β-cyclodextrin were set to 420.99, 972.84, 1134.98, 1297.12 and 1506.69, respectively."}, "[2]": {"settings": "cited from earlier work; for Solubility in water: cyclodextrins, water at 25° C."}}, "note": "Like-named read-outs stand apart in the source and are kept apart here.", "data": [{"molecule": "O=C(O)CSCCCC[C@@H]1[C@@H](C#C[C@@H](O)C2CCCCC2)[C@H](O)C[C@H]1Cl", "note": "[compound of formula II]", "values": [{"measurement": "solubility", "setting": "Solubility in water", "result": "~60", "unit": "µg/mL"}, {"measurement": "Solubility of compound of formula II (mg/mL)", "setting": "[1]; hydroxypropyl-β-cyclodextrin 0.25% by mass in water, 25° C., * completely dissolved, actual solubility assumed much higher", "result": "> 0.10* mg/mL"}, {"measurement": "Solubility of compound of formula II (mg/mL)", "setting": "[1]; hydroxypropyl-β-cyclodextrin 5% by mass in water, 25° C., * completely dissolved, actual solubility assumed much higher", "result": "> 2.0* mg/mL"}, {"measurement": "Solubility of compound of formula II (mg/mL)", "setting": "[1]; hydroxypropyl-β-cyclodextrin 10% by mass in water, 25° C., * completely dissolved, actual solubility assumed much higher", "result": "> 3.0* mg/mL"}, {"measurement": "solubility at 24 h", "setting": "[1]; α-cyclodextrin aqueous solution, α-cyclodextrin 1% by mass in water, 25° C., 24 hours, read-out: Solubility of compound of formula II", "result": 110, "unit": "µg/mL"}, {"measurement": "solubility at 24 h", "setting": "[1]; α-cyclodextrin aqueous solution, α-cyclodextrin 2% by mass in water, 25° C., 24 hours, read-out: Solubility of compound of formula II", "result": 170, "unit": "µg/mL"}, {"measurement": "solubility at 24 h", "setting": "[1]; α-cyclodextrin aqueous solution, α-cyclodextrin 5% by mass in water, 25° C., 24 hours, read-out: Solubility of compound of formula II", "result": 500, "unit": "µg/mL"}, {"measurement": "solubility at 24 h", "setting": "[1]; α-cyclodextrin aqueous solution, α-cyclodextrin 10% by mass in water, 25° C., 24 hours, read-out: Solubility of compound of formula II", "result": 1220, "unit": "µg/mL"}, {"measurement": "solubility at 24 h", "setting": "[1]; α-cyclodextrin aqueous solution, α-cyclodextrin 12% by mass in aqueous solution, 25° C. (FIG. 1), read-out: Solubility of the compound of formula II", "result": 1520, "unit": "µg/mL"}, {"measurement": "solubility at 24 h", "setting": "[1]; β-cyclodextrin aqueous solution, β-cyclodextrin 1% by mass in water, 25° C., 24 hours, read-out: Solubility of compound of formula II", "result": "< 100", "unit": "µg/mL"}, {"measurement": "solubility at 24 h", "setting": "[1]; β-cyclodextrin aqueous solution, β-cyclodextrin 2% by mass in water, 25° C., * completely dissolved, actual solubility assumed much higher, read-out: Solubility of compound of formula II", "result": "> 200", "unit": "µg/mL"}, {"measurement": "Compound of formula II: cyclodextrin (molar ratio)", "setting": "[1]; γ-cyclodextrin 5% by mass", "result": 0.1396}, {"measurement": "solubility at 24 h", "setting": "[1]; γ-cyclodextrin aqueous solution, γ-cyclodextrin 0.1% by mass in water, 25° C., * completely dissolved, actual solubility assumed much higher, read-out: Solubility of compound of formula II", "result": "> 50", "unit": "µg/mL"}, {"measurement": "solubility at 24 h", "setting": "[1]; γ-cyclodextrin aqueous solution, γ-cyclodextrin 1% by mass in water, 25° C., 24 hours, read-out: Solubility of compound of formula II", "result": 170, "unit": "µg/mL"}, {"measurement": "solubility at 24 h", "setting": "[1]; γ-cyclodextrin aqueous solution, γ-cyclodextrin 5% by mass in water, 25° C., 24 hours, read-out: Solubility of compound of formula II", "result": 120, "unit": "µg/mL"}]}, {"molecule": "OC[C@H]1O[C@@H]2O[C@H]3[C@H](O)[C@@H](O)[C@@H](O[C@H]4[C@H](O)[C@@H](O)[C@@H](O[C@H]5[C@H](O)[C@@H](O)[C@@H](O[C@H]6[C@H](O)[C@@H](O)[C@@H](O[C@H]7[C@H](O)[C@@H](O)[C@@H](O[C@H]1[C@H](O)[C@H]2O)O[C@@H]7CO)O[C@@H]6CO)O[C@@H]5CO)O[C@@H]4CO)O[C@@H]3CO", "note": "[α-cyclodextrin]", "values": [{"measurement": "Solubility in water", "setting": "[2]", "result": "approximately 14%"}, {"measurement": "Solubility of α-cyclodextrin in water", "setting": "[2]; water", "result": "approximately 14 % by mass"}]}, {"molecule": "OC[C@H]1O[C@@H]2O[C@H]3[C@H](O)[C@@H](O)[C@@H](O[C@H]4[C@H](O)[C@@H](O)[C@@H](O[C@H]5[C@H](O)[C@@H](O)[C@@H](O[C@H]6[C@H](O)[C@@H](O)[C@@H](O[C@H]7[C@H](O)[C@@H](O)[C@@H](O[C@H]8[C@H](O)[C@@H](O)[C@@H](O[C@H]1[C@H](O)[C@H]2O)O[C@@H]8CO)O[C@@H]7CO)O[C@@H]6CO)O[C@@H]5CO)O[C@@H]4CO)O[C@@H]3CO", "note": "[β-cyclodextrin]", "values": [{"measurement": "Solubility in water", "setting": "[2]", "result": "approximately 2%"}]}, {"molecule": "hydroxypropyl-β-cyclodextrin", "values": [{"measurement": "Solubility in water", "setting": "[2]", "result": "approximately 22%"}]}]}
